Values of other authors as cited in US10945961B2, “Method using enteric-coated etidronate for treating calcification, hypercalcaemia, and calcinosis of the brain and other organs” (ZY YTHERAPEUTICS LLC, priority 2017, dated 2021).
Entries after “also recorded” stand apart in the source; their conditions may differ.

What was measured:
[1] = for plasma half-life: comparison of first- with 2nd and 3rd generation bisphosphonates
[2] = animal studies
[3] = preclinical studies; immediate-release
[4] = tested on: patients with brain calcifications (Fahr's Disease)
[5] = in vitro

| SMILES | plasma half-life [1] [h] | metabolism ([1]; in vivo) | amount of drug absorbed after an oral dose ([1]; oral dose, immediate-release) [%] | absorbed dose excreted in urine ([1]; within 24 hours, fraction of the absorbed dose) | bone clearance estimates [2] | crossing of the blood-brain barrier [3] | symptomatic effect (seizures, headaches, Parkinsonian symptoms) ([4]; patients with brain calcification) | size of intracerebral calcifications ([4]; patients, finding of Loeb) | affinity for solid-phase calcium phosphate [5] |
| --- | --- | --- | --- | --- | --- | --- | --- | --- | --- |
| CC(O)(P(=O)(O)O)P(=O)(O)O [disodium etidronate, 1-hydroxyethane 1,1-diphosphonic acid] | 6 | not metabolized | 3 | approximately half | up to 165 days | does not significantly cross the blood-brain barrier | reduction in seizures and headaches; also recorded: symptomatic improvement of seizures, headaches, and Parkinsonian symptoms | does not reduce the size of intracerebral calcifications | high affinity |
| O=P(O)(O)C(O)(Cn1ccnc1)P(=O)(O)O [zolendronic acid] | 146 | – | – | – | – | – | – | – | – |
